Reference: ChEMBL document CHEMBL6153170 (J Med Chem, 2025)
Activity calls are given as the source filed them. The rule behind the calls is not given here.

Assays:
[1] = Cmax in male Sprague-Dawley rat at 2 mg/kg, iv measured after 48 hrs by triple quadrupole mass spectrometric analysis; type: ADME, organism-based; conditions: in vivo
[2] = tested on: Jurkat; assay: Effect on HDAC6 protein level in human Jurkat T cells at 0.1 to 2 uM incubated for 12 hrs by Western blot analysis; type: functional, cell-based; conditions: dose 0.1-2 µM
[3] = molecular target: T1, Protein deacetylase HDAC6 (Mus musculus) (UniProt Q9Z2V5); assay: In vivo inhibition of HDAC6 in C57BL/6 mouse model implanted with mouse B16-F10 cells assessed as increase in acetylated alpha-tubulin protein level in tumor at 20 mg/kg/day, ip administered for 14 days by Western blot analysis; type: functional, organism-based; conditions: time 14.0 day
T1 sequence (whole entry): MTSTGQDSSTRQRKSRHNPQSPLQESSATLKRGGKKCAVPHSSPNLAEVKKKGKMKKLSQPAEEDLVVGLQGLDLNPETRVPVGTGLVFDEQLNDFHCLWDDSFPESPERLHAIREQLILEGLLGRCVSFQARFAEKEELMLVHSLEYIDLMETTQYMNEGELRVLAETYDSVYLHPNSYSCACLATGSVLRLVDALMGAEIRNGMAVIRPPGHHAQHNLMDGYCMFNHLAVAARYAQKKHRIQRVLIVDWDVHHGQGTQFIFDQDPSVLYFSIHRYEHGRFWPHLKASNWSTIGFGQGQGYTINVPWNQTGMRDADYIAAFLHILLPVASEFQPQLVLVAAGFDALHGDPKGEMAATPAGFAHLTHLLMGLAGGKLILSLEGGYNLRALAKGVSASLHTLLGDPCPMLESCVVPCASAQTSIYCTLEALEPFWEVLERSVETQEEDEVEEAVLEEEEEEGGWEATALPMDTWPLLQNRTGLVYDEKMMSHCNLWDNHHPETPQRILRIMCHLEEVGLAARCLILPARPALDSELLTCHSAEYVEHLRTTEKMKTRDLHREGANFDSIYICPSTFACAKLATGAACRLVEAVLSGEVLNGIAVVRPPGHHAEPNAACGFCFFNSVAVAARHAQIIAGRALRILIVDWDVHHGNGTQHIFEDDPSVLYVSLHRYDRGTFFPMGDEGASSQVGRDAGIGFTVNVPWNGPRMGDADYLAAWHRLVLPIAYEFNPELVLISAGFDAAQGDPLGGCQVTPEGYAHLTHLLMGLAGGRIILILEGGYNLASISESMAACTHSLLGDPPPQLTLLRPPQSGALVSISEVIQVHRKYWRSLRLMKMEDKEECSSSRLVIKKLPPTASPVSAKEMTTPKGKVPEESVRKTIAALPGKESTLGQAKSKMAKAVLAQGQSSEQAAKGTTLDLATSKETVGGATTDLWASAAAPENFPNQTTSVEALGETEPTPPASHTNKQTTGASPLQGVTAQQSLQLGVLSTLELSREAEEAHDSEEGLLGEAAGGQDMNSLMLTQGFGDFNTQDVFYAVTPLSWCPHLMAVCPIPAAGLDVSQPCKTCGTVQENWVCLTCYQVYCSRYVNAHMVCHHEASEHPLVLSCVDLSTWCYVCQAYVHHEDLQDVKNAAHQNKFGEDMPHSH

[4] = Apparent volume of distribution during terminal phase in male Sprague-Dawley rat at 2 mg/kg, iv measured after 48 hrs by triple quadrupole mass spectrometric analysis; type: ADME, organism-based; conditions: in vivo
[5] = tested on: Jurkat; assay: Effect on Histone H3 protein level in human Jurkat T cells at 0.1 to 2 uM incubated for 12 hrs by Western blot analysis; type: functional, cell-based; conditions: dose 0.1-2 µM
[6] = tested on: B16-F10; assay: Effect on Histone H3 protein level in mouse B16-F10 cells at 0.1 to 2 uM incubated for 12 hrs by Western blot analysis; type: functional, cell-based; conditions: dose 0.1-2 µM
[7] = tested on: HepG2; assay: Cytotoxicity against human HepG2 cells assessed as reduction in cell viability at 3.3 to 10 uM incubated for 48 hrs by MTT assay; type: functional, cell-based; conditions: dose 3.3-10 µM
[8] = tested on: B16-F10; assay: Antitumor immunity activity against mouse B16-F10 cells implanted in C57BL/6 mouse model assessed as CD3+ CD8+ T cell percentage in tumor at 20 mg/kg/day, ip administered for 14 days by flow cytometric analysis (reference value: 0.52 %); type: functional; conditions: time 14 day
[9] = Toxicity in C57 mouse assessed as change in AST level at 20 mg/kg/day, IG administered for 14 days by heat map analysis; type: organism-based; conditions: in vivo, po, 336 h, time 14 day
[10] = tested on: B16-F10; assay: Effect on acetylated histone H3 protein level in mouse B16-F10 cells at 0.1 to 2 uM incubated for 12 hrs by Western blot analysis; type: functional, cell-based; conditions: dose 0.1-2 µM
[11] = tested on: B16-F10; assay: Antitumor immunity activity against mouse B16-F10 cells implanted in C57BL/6 mouse model assessed as CD3+ CD4+ T cell percentage in tumor at 20 mg/kg/day, ip administered for 14 days by flow cytometric analysis (reference value: 0.095 %); type: functional; conditions: time 14 day
[12] = Toxicity in C57 mouse assessed as myelosuppression by measuring PCT level at 20 mg/kg/day, IG administered for 14 days by heat map analysis; type: organism-based; conditions: in vivo, po, 336 h, time 14 day
[13] = Toxicity in C57BL/6 mouse model implanted with mouse B16-F10 cells assessed as morphological changes in heart at 20 mg/kg/day, ip administered for 14 days by H and E staining based analysis; type: organism-based; conditions: in vivo, 336 h, time 14 day
[14] = MRT (0 to t) in male Sprague-Dawley rat at 10 mg/kg, po measured after 48 hrs by triple quadrupole mass spectrometric analysis; type: ADME, organism-based; conditions: in vivo

COc1nc(-c2cccc(-c3ccccc3)c2C)ccc1CNCCCCCCC(=O)NO
Cmax [1]: 638 ng/mL
Activity [2]: inactive
inhibition [3]: Active
Vz/F [4]: 8.99 L/kg
Activity [5]: inactive
Activity [6]: inactive
Activity [7]: Active; Mild Cytotoxicity Observed
Activity [8]: 11.19%
Activity [9]: Non-toxic
Activity [10]: Active; Negligible Effect Observed
Activity [11]: 11.5%
Activity [12]: Non-toxic
Activity [13]: Non-toxic
MRT last at 48 h [14]: 15.3 h
